# Laboratory results reported in the C3SDB collision cross section collection.
# Where “and” joins values, the source holds several entries; their conditions need not be identical. Identical values can stand only once.
# Settings: [M+H-H2O]+; instrument: DT; stepped-field
row,Compound,collision cross section (N2) [Å²]
1,OCC1OC(OC2C(CO)OC(OC3C(CO)OC(OC4C(CO)OC(OC5C(CO)OC(OC6C(CO)OC(OC7C(CO)OC(OC8C(CO)OC(OC9C(CO)OC(OC%10C(CO)OC(O)C(O)C%10O)C(O)C9O)C(O)C8O)C(O)C7O)C(O)C6O)C(O)C5O)C(O)C4O)C(O)C3O)C(O)C2O)C(O)C(O)C1O (stereo not drawn) [(Hex)10],383.4

# Same assay, conditions: [M+H]+; instrument: DT; stepped-field
row,Compound,collision cross section (N2)
1,OCC1OC(OC2C(CO)OC(OC3C(CO)OC(OC4C(CO)OC(OC5C(CO)OC(OC6C(CO)OC(OC7C(CO)OC(OC8C(CO)OC(OC9C(CO)OC(OC%10C(CO)OC(O)C(O)C%10O)C(O)C9O)C(O)C8O)C(O)C7O)C(O)C6O)C(O)C5O)C(O)C4O)C(O)C3O)C(O)C2O)C(O)C(O)C1O (stereo not drawn) [(Hex)10],365.1 Å² and 390.3 Å²
2,CC(C)C[C@H](NC(=O)[C@H](C)NC(=O)[C@H](CC(=O)O)NC(=O)[C@H](C)NC(=O)[C@H](C)N)C(=O)N[C@@H](CC(C)C)C(=O)N[C@@H](CC(C)C)C(=O)N[C@@H](CCCCN)C(=O)O [AADALLLK],291.8 Å² and 277.8 Å²
3,CCC(C)[C@H](NC(=O)[C@H](CC(N)=O)NC(=O)[C@H](C)N)C(=O)N[C@@H](CC(=O)O)C(=O)N[C@H](C(=O)N[C@@H](CCCCN)C(=O)O)C(C)C (stereo partly drawn) [ANIDVK],248.1 Å²
4,CC(C)C[C@H](NC(=O)[C@H](C)NC(=O)[C@@H](N)CCC(=O)O)C(=O)N[C@@H](CC(=O)O)C(=O)N[C@@H](Cc1ccccc1)C(=O)N[C@@H](Cc1ccccc1)C(=O)N[C@@H](C)C(=O)N[C@@H](CCCNC(=N)N)C(=O)O [EALDFFAR],305.9 Å²
5,CC(C)C[C@H](NC(=O)[C@H](CCC(=O)O)NC(=O)[C@@H](N)CCC(=O)O)C(=O)N[C@@H](Cc1ccccc1)C(=O)N[C@@H](CCCNC(=N)N)C(=O)O [EELFR],254.1 Å²
6,NCC(=O)N[C@@H](CCCN=C(N)N)C(=O)NCC(=O)N[C@@H](CC(=O)O)C(=O)N[C@@H](CO)C(=O)O [GRGDS],205.9 Å²
7,CC(C)[C@H](NC(=O)CN)C(=O)N[C@@H](Cc1ccccc1)C(=O)N[C@@H](CCCNC(=N)N)C(=O)O [GVFR],214.8 Å²
8,CC(C)C[C@H](NC(=O)[C@H](CC(=O)O)NC(=O)[C@H](C)NC(=O)[C@H](CC(C)C)NC(=O)[C@@H](N)Cc1c[nH]cn1)C(=O)N[C@@H](CO)C(=O)N[C@@H](CCCCN)C(=O)O [HLADLSK],273.3 Å²
9,CCC(C)[C@H](N)C(=O)NCC(=O)N[C@@H](CC(=O)O)C(=O)N[C@@H](Cc1ccc(O)cc1)C(=O)N[C@@H](C)C(=O)NCC(=O)N[C@H](C(=O)N[C@@H](CCCCN)C(=O)O)C(C)CC (stereo partly drawn) [IGDYAGIK],285.9 Å²
10,CC(C)C[C@H](NC(=O)[C@H](CC(C)C)NC(=O)[C@H](CCC(N)=O)NC(=O)[C@H](CC(N)=O)NC(=O)[C@@H](N)CC(C)C)C(=O)N[C@@H](CCCNC(=N)N)C(=O)O [LNQLLR],275.6 Å²
11,CCC(C)[C@H](NC(=O)[C@H](CC(N)=O)NC(=O)[C@H](CCC(=O)O)NC(=O)[C@H](C)NC(=O)[C@H](CC(C)C)NC(=O)[C@@H](N)CC(N)=O)C(=O)N[C@@H](CO)C(=O)N[C@@H](CCCNC(=N)N)C(=O)O (stereo partly drawn) [NLAENISR],291.7 Å²

# Same assay, conditions: [M+K]+; instrument: DT; stepped-field
row,Compound,collision cross section (N2) [Å²]
1,NCC(=O)N[C@@H](CCCN=C(N)N)C(=O)NCC(=O)N[C@@H](CC(=O)O)C(=O)N[C@@H](CO)C(=O)O [GRGDS],210.4
2,CC(=O)NC1C(OC2C(O)C(CO)OC(OC3C(CO)OC(O)C(O)C3O)C2O)OC(CO)C(O)C1OC1OC(CO)C(O)C(O)C1O (stereo not drawn) [HexNAc-(Hex)3],248.2
3,CC(=O)N[C@H]1[C@H](OC2[C@@H](O)[C@H](O[C@@H]([C@H](O[C@@H]3O[C@@H](C)[C@@H](O)[C@@H](O)[C@@H]3O)[C@@H](O)C=O)[C@H](O)CO)O[C@H](CO)[C@@H]2O)O[C@H](CO)[C@@H](O[C@@H]2O[C@@H](C)[C@@H](O)[C@@H](O)[C@@H]2O)[C@@H]1O[C@@H]1O[C@H](CO)[C@H](O)[C@H](O)[C@H]1O (stereo partly drawn) [Lacto-N-Difucohexaose II],305.8
4,OC[C@H]1O[C@H](O[C@H]2[C@H](O)[C@@H](O)[C@@H](O[C@H]3[C@H](O)[C@@H](O)[C@@H](O[C@H]4[C@H](O)[C@@H](O)[C@@H](O[C@H]5[C@H](O)[C@@H](O)[C@@H](O[C@H]6[C@H](O)[C@@H](O)[C@@H](O)O[C@@H]6CO)O[C@@H]5CO)O[C@@H]4CO)O[C@@H]3CO)O[C@@H]2CO)[C@H](O)[C@@H](O)[C@@H]1O [Maltohexaose],293.3
5,CCCCC/C=C\C/C=C\C/C=C\CCCCC(=O)O[C@H](COC(=O)CCCCCCCCCCCCC)COP(=O)([O-])OCC[N+](C)(C)C [PC(32:3)],288.9
6,CCCCC/C=C\C/C=C\C/C=C\CCCCC(=O)O[C@H](COC(=O)CCCCCCC/C=C\CCCCC)COP(=O)([O-])OCC[N+](C)(C)C [PC(33:4)],287.5
7,CC\C=C/C=C/C=C/C=C\CCCCCCCC(=O)O[C@H](COC(=O)CCCCCCCCCCCCCCC)COP(=O)([O-])OCC[N+](C)(C)C [PC(34:4)],289
8,CC/C=C\C/C=C\C/C=C\C/C=C\CCCCC(=O)OC[C@H](COP(=O)([O-])OCC[N+](C)(C)C)OC(=O)CCCCCCCCCCCCCCCC [PC(35:4)],294.5
9,CCCC/C=C\C/C=C\CCCCCCCC(=O)OC[C@H](COP(=O)([O-])OCC[N+](C)(C)C)OC(=O)CCCC/C=C\C/C=C\C/C=C\CCCCC [PC(35:5)],293.8
10,CCCCC/C=C\C/C=C\C/C=C\C/C=C\CCCCCC(=O)O[C@H](COC(=O)CCCCCCC/C=C\CCCCC)COP(=O)([O-])OCC[N+](C)(C)C [PC(37:5)],299
11,CC/C=C\C/C=C\C/C=C\C/C=C\C/C=C\C/C=C\CCC(=O)O[C@H](COC(=O)CCCCCCC/C=C\CCCCC)COP(=O)([O-])OCC[N+](C)(C)C [PC(37:7)],296.6
12,CC/C=C\C/C=C\C/C=C\C/C=C\C/C=C\CCCCCC(=O)O[C@H](COC(=O)CCCCCCCCCCCCCCCC)COP(=O)([O-])OCC[N+](C)(C)C [PC(39:5)],304.7
13,CCCCCCC=CCC=CCC(=O)OC[C@H](COP(=O)(O)OCCN)OC(=O)CC=CCC=CCCCCCC [PE(26:4)],245.4
14,CCCC=CCC=CCC=CCC(=O)OC[C@H](COP(=O)(O)OCCN)OC(=O)CC=CCC=CCC=CCCC [PE(26:6)],241.7
15,CCCCCCCCCCCCCCCCC(=O)O[C@H](COC(=O)CCCCCCCCCCCCCCC)COP(=O)(O)OCCN [PE(33:0)],277.2
16,CCCCCCCCCCCCCCCCCCC(=O)O[C@H](COC(=O)CCCCCCCCCCCCCCC)COP(=O)(O)OCCN [PE(35:0)],286.2

# Same assay, conditions: [M+Na-H2O]+; instrument: DT; stepped-field
row,Compound,collision cross section (N2)
1,CC(=O)NC1C(OC2C(O)C(CO)OC(OC3C(CO)OC(O)C(O)C3O)C2O)OC(CO)C(O)C1OC1OC(CO)C(O)C(O)C1O (stereo not drawn) [HexNAc-(Hex)3],244.9 Å²
2,CC(=O)NC1C(OC2C(O)C(CO)OC(OC(C(O)CO)C(OC3OC(C)C(O)C(O)C3O)C(O)C=O)C2O)OC(CO)C(O)C1OC1OC(CO)C(O)C(O)C1O (stereo not drawn) [HexNAc-Fuc-(Hex)3],262 Å² and 263.1 Å²

# Same assay, conditions: [M+Na]+; instrument: DT; stepped-field
row,Compound,collision cross section (N2)
1,OCC1OC(OC2C(CO)OC(OC3C(CO)OC(OC4C(CO)OC(OC5C(CO)OC(OC6C(CO)OC(OC7C(CO)OC(OC8C(CO)OC(OC9C(CO)OC(OC%10C(CO)OC(O)C(O)C%10O)C(O)C9O)C(O)C8O)C(O)C7O)C(O)C6O)C(O)C5O)C(O)C4O)C(O)C3O)C(O)C2O)C(O)C(O)C1O (stereo not drawn) [(Hex)10],365.1 Å² and 373.8 Å²
2,NCC(=O)N[C@@H](CCCN=C(N)N)C(=O)NCC(=O)N[C@@H](CC(=O)O)C(=O)N[C@@H](CO)C(=O)O [GRGDS],208.2 Å²
3,CCCCCCCCCCCCCCCC(=O)N[C@@H](CO[C@@H]1O[C@H](CO)[C@@H](O)C(O)C1O)[C@H](O)CCCCCCCCCCCCCCC (stereo partly drawn) [GlcCer(34:0)],281.7 Å²
4,CCCCCCCCCCCCC=CC[C@@H](O)[C@H](CO[C@@H]1O[C@H](CO)[C@@H](O)C(O)C1O)NC(=O)CCCCCCCCCCCCCCCCCC (stereo partly drawn) [GlcCer(37:1)],286.8 Å²
5,CCCCCCCCCCCCCCCCCCCC(=O)N[C@@H](CO[C@@H]1O[C@H](CO)[C@@H](O)C(O)C1O)[C@H](O)CCCCCCCCCCCCCCC (stereo partly drawn) [GlcCer(38:0)],295.6 Å²
6,CCCCCCCCCCCCC=CC[C@@H](O)[C@H](CO[C@@H]1O[C@H](CO)[C@@H](O)C(O)C1O)NC(=O)CCCCCCCCCCCCCCCCCCC (stereo partly drawn) [GlcCer(38:1)],293.8 Å²
7,CCCCCCCCCCCCC=CC[C@@H](O)[C@H](CO[C@@H]1O[C@H](CO)[C@@H](O)C(O)C1O)NC(=O)CC=CCCCCCCCCCCCCCCCCCC (stereo partly drawn) [GlcCer(40:2)],297.1 Å²
8,CCCCCCCCCCCCC=CC[C@@H](O)[C@H](CO[C@@H]1O[C@H](CO)[C@@H](O)C(O)C1O)NC(=O)CC=CCCCCCCCCCCCCCCCCCCCCC (stereo partly drawn) [GlcCer(43:2)],307.8 Å²
9,CCCCCCCCCCCCC=CC[C@@H](O)[C@H](CO[C@@H]1O[C@H](CO)[C@@H](O)C(O)C1O)NC(=O)CC=CCCCCCCCCCCCCCCCCCCCCCC (stereo partly drawn) [GlcCer(44:2)],315.3 Å²
10,CCCCCCCCCCCCC=CC[C@@H](O)[C@H](CO[C@@H]1O[C@H](CO)[C@@H](O)C(O)C1O)NC(=O)CC=CCC=CCCCCCCCCCCCCCCCCCCC (stereo partly drawn) [GlcCer(44:3)],310.7 Å²
11,CC(=O)NC1C(OC2C(O)C(CO)OC(OC3C(CO)OC(O)C(O)C3O)C2O)OC(CO)C(O)C1OC1OC(CO)C(O)C(O)C1O (stereo not drawn) [HexNAc-(Hex)3],244 Å²
12,CC(=O)N[C@H]1[C@H](OC2[C@@H](O)[C@H](O[C@@H]([C@H](O[C@@H]3O[C@@H](C)[C@@H](O)[C@@H](O)[C@@H]3O)[C@@H](O)C=O)[C@H](O)CO)O[C@H](CO)[C@@H]2O)O[C@H](CO)[C@@H](O[C@@H]2O[C@@H](C)[C@@H](O)[C@@H](O)[C@@H]2O)[C@@H]1O[C@@H]1O[C@H](CO)[C@H](O)[C@H](O)[C@H]1O (stereo partly drawn) [Lacto-N-Difucohexaose II],291.2 Å² and 306.3 Å²
13,OC[C@H]1O[C@H](O[C@H]2[C@H](O)[C@@H](O)[C@@H](O[C@H]3[C@H](O)[C@@H](O)[C@@H](O[C@H]4[C@H](O)[C@@H](O)[C@@H](O[C@H]5[C@H](O)[C@@H](O)[C@@H](O[C@H]6[C@H](O)[C@@H](O)[C@@H](O)O[C@@H]6CO)O[C@@H]5CO)O[C@@H]4CO)O[C@@H]3CO)O[C@@H]2CO)[C@H](O)[C@@H](O)[C@@H]1O [Maltohexaose],286.4 Å²
14,CC/C=C\C/C=C\C/C=C\C/C=C\C/C=C\CCCC(=O)O[C@H](COC(=O)CCCC/C=C\C/C=C\C/C=C\CCCCC)COP(=O)([O-])OCC[N+](C)(C)C [PC(38:8)],299.9 Å²
15,CCCC=CCC=CCC=CCC=CCC=CCC(=O)OC[C@H](COP(=O)(O)OCC[N+](C)(C)C)OC(=O)CC=CCC=CCC=CCC=CCC=CCCC [PC(38:10)],295.9 Å²
16,CC/C=C\C/C=C\C/C=C\C/C=C\C/C=C\CCCC(=O)OC[C@H](COP(=O)([O-])OCC[N+](C)(C)C)OC(=O)CCC/C=C\C/C=C\C/C=C\C/C=C\C/C=C\CC [PC(40:10)],301.5 Å²

# Settings: [M+H]+; instrument: TW; Major Mix IMS/Tof Calibration Kit (Waters)
row,Compound,collision cross section (N2) [Å²]
1,CCN(C(C)=O)c1cccc(-c2ccnc3c(C#N)cnn23)c1 [Zaleplon],173.5
2,Cc1nn(C)c2c1C(c1ccccc1F)=NCC(=O)N2C [Zolazepam],162.3
3,CN(C)CCc1c[nH]c2ccc(C[C@H]3COC(=O)N3)cc12 [Zolmitriptan],160.6
4,Cc1ccc(-c2nc3ccc(C(=O)O)cn3c2CC(=O)N(C)C)cc1 [Zolpidem-M 2],181.4
5,Cc1ccc(-c2nc3ccc(C)cn3c2CC(=O)N(C)C)cc1 [Zolpidem],177.2
6,OCCN1CCN(CC/C=C2/c3ccccc3Sc3ccc(Cl)cc32)CC1 [Zuclopenthixol],194
7,Clc1cccc(N2CCNCC2)c1 [mCPP],144.3
